This note sets out measurements from ChEMBL document CHEMBL1144272, “Generation of a new class of hNK(2) receptor ligands using the 'fragment approach'” (Bioorg Med Chem Lett, 2005).

Bounds are passed on as bounds.

The experiment has as its target T1, Substance-K receptor (Homo sapiens, UniProt P21452).
T1 sequence (P21452 whole entry): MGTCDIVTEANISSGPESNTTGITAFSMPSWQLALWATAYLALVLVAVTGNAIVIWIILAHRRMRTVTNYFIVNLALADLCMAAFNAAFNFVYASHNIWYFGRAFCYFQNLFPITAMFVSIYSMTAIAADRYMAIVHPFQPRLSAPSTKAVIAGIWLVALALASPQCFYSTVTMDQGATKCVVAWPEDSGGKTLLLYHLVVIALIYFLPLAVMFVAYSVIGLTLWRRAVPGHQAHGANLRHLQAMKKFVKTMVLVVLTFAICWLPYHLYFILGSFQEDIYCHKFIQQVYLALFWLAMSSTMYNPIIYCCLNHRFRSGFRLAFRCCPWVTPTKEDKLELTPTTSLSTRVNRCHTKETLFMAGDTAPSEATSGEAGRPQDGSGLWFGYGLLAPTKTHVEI
Kind of experiment: Binding affinity for human tachykinin receptor 2 was measured by using [125I]NKA as radio ligand.
For orientation: Ki means the dissociation constant of the complex between target and ligand, obtained from inhibition or displacement. In turn, `CC(C)(Oc1ccc(-c2ccccc2)cc1)C(=O)N[C@@H](Cc1ccccc1)C(=O)NCCCN1CCOCC1` yielded an inhibitory constant (Ki) of 7900 nM.

Regarding `COc1cc(COc2ccc(NC(=O)N[C@H](Cc3ccccc3)C(=O)NCCCN3CCOCC3)cc2)cc(OC)c1`, the Ki is above 1000 nM.

The molecule `Cc1ccc(COc2ccc(NC(=O)N[C@@H](Cc3ccccc3)C(=O)NCCCN3CCOCC3)cc2)cc1` returned a Ki of 790 nM. `CC(C)c1ccc(OC(C)(C)C(=O)N[C@H](Cc2ccccc2)C(=O)NCCCN2CCOCC2)cc1` yielded a Ki above 1000 nM. As for `CC(C)c1ccc(OC(C)(C)C(=O)N[C@@H](Cc2ccccc2)C(=O)NCCCN2CCOCC2)cc1`, the figure is above 1000 nM; as for `O=C(Nc1ccc(OCc2cc(F)cc(F)c2)cc1)N[C@@H](Cc1ccccc1)C(=O)NCCCN1CCOCC1`, 500 nM; as for `CN(C(=O)N[C@@H](Cc1ccccc1)C(=O)NCCCN1CCOCC1)c1ccc(Oc2ccccc2)cc1`, above 3000 nM. As for `CN(C(=O)N[C@H](Cc1ccccc1)C(=O)NCCCN1CCOCC1)c1ccc(Oc2ccccc2)cc1`, the figure is above 3000 nM; as for `CC(C)(Oc1cccc(-c2ccccc2)c1)C(=O)N[C@H](Cc1ccccc1)C(=O)NCCCN1CCOCC1`, 10000 nM; as for `CN(C(=O)N[C@@H](Cc1ccccc1)C(=O)NCCCN1CCOCC1)c1cccc(Oc2ccccc2)c1`, above 3000 nM.

On to `CC(C)(C)c1ccc(Oc2ccc(NC(=O)N[C@@H](Cc3ccccc3)C(=O)NCCCN3CCOCC3)cc2)cc1`, for which the affinity, expressed as Ki, was 50 nM. Consider `CC(C)(Nc1ccccc1)C(=O)N[C@H](Cc1ccccc1)C(=O)NCCCN1CCOCC1`, for which the inhibition constant Ki was above 3000 nM. The molecule `CC(C)(C)c1ccc(Oc2ccc(NC(=O)N[C@H](Cc3ccccc3)C(=O)NCCCN3CCOCC3)cc2)cc1` registered an inhibition constant (Ki) of 120 nM. As for `CN(C(=O)N[C@H](Cc1ccccc1)C(=O)NCCCN1CCOCC1)c1cccc(Oc2ccccc2)c1`, the figure is above 3000 nM; as for `O=C(N[C@@H](Cc1ccccc1)C(=O)NCCCN1CCOCC1)C(c1ccccc1)c1ccccc1`, 2000 nM; as for `O=C(Nc1ccc(OCc2cc(F)cc(F)c2)cc1)N[C@H](Cc1ccccc1)C(=O)NCCCN1CCOCC1`, above 1000 nM. In the case of `O=C(Nc1ccc(Oc2cccc(F)c2)cc1)N[C@@H](Cc1ccccc1)C(=O)NCCCN1CCOCC1`, the affinity corresponds to a Ki of 200 nM.

The molecule `O=C(Nc1ccc(Sc2ccc(F)cc2)cc1)N[C@@H](Cc1ccccc1)C(=O)NCCCN1CCOCC1` yielded a Ki of 130 nM.

As for `O=C(Nc1ccc(Oc2ccc(F)cc2)cc1)N[C@@H](Cc1ccccc1)C(=O)NCCCN1CCOCC1`, affinity was put at a Ki of 16 nM. In the case of `CCc1ccc(Oc2ccc(NC(=O)N[C@@H](Cc3ccccc3)C(=O)NCCCN3CCOCC3)cc2)cc1`, the inhibitory constant (Ki) was found to be 200 nM. On to `O=C(Nc1ccc(Oc2ccc(F)cc2)cc1)N[C@H](Cc1ccccc1)C(=O)NCCCN1CCOCC1`, for which the Ki was above 310 nM.

Molecule `O=C(Nc1ccc(Oc2ccccc2)cc1)N[C@H](Cc1ccccc1)C(=O)NCCCN1CCOCC1` returned an inhibitory constant (Ki) of 500 nM. As for `O=C(N[C@H](Cc1ccccc1)C(=O)NCCCN1CCOCC1)c1cccc(-c2ccccc2)c1`, the Ki is above 10000 nM.

For `O=C(NCCCN1CCOCC1)[C@H](Cc1ccccc1)NC(=O)N1CCCC(O)(c2ccccc2)C1` (some centres undefined), affinity was put at a Ki of 6300 nM. As to `O=C(Nc1cccc(Oc2ccccc2)c1)N[C@H](Cc1ccccc1)C(=O)NCCCN1CCOCC1`, the affinity, expressed as Ki, was 300 nM. In turn, `CC(C)(Nc1ccccc1Oc1ccccc1)C(=O)N[C@@H](Cc1ccccc1)C(=O)NCCCN1CCOCC1` returned an inhibitory constant (Ki) above 3000 nM. For `O=C(N[C@@H](Cc1ccccc1)C(=O)NCCCN1CCOCC1)c1cccc(-c2ccccc2)c1`, the inhibition constant (Ki) worked out at 2000 nM. With `O=C(Nc1ccc(OCc2cccc(Cl)c2)cc1)N[C@H](Cc1ccccc1)C(=O)NCCCN1CCOCC1`, the affinity corresponds to a Ki of 630 nM. In turn, `O=C(Nc1ccc(OCc2cccc(Cl)c2)cc1)N[C@@H](Cc1ccccc1)C(=O)NCCCN1CCOCC1` returned an inhibition constant Ki of 320 nM. Take `O=C(Nc1ccc(Oc2ccc(OC(F)(F)F)cc2)cc1)N[C@@H](Cc1ccccc1)C(=O)NCCCN1CCOCC1`: the Ki is above 100 nM.

The molecule `O=C(N[C@H](Cc1ccccc1)C(=O)NCCCN1CCOCC1)c1ccccc1` gave an inhibition constant Ki above 10000 nM. `CC(C)(Oc1ccc(Cl)cc1)C(=O)N[C@H](Cc1ccccc1)C(=O)NCCCN1CCOCC1` returned a Ki of 600 nM.

The molecule `CCc1ccc(Oc2ccc(NC(=O)N[C@H](Cc3ccccc3)C(=O)NCCCN3CCOCC3)cc2)cc1` yielded a Ki of 630 nM. For `O=C(Nc1ccc(Sc2ccc(F)cc2)cc1)N[C@H](Cc1ccccc1)C(=O)NCCCN1CCOCC1` the value was above 200 nM; for `CC(C)(Oc1ccccc1-c1ccccc1)C(=O)N[C@H](Cc1ccccc1)C(=O)NCCCN1CCOCC1`, 5000 nM. Consider `O=C(N[C@@H](Cc1ccccc1)C(=O)NCCCN1CCOCC1)c1ccccc1`, for which the inhibition constant Ki was above 10000 nM.

Molecule `CC(C)(Oc1ccc(C(F)(F)F)cc1)C(=O)N[C@H](Cc1ccccc1)C(=O)NCCCN1CCOCC1` came in with a Ki above 1000 nM. Molecule `O=C(Nc1ccccc1Oc1ccccc1)N[C@H](Cc1ccccc1)C(=O)NCCCN1CCOCC1` registered a Ki above 10000 nM. The molecule `CN(Cc1ccccc1)C(=O)N[C@@H](Cc1ccccc1)C(=O)NCCCN1CCOCC1` gave an inhibition constant Ki of 2000 nM. Regarding `O=C(Nc1ccc(OCc2ccc(C(F)(F)F)cc2)cc1)N[C@H](Cc1ccccc1)C(=O)NCCCN1CCOCC1`, the inhibition constant Ki is 5000 nM. Molecule `O=C(Nc1ccc(Oc2ccccc2)cc1)N[C@@H](Cc1ccccc1)C(=O)NCCCN1CCOCC1` yielded an inhibition constant (Ki) of 1000 nM. `O=C(Nc1ccc(Oc2cccc(F)c2)cc1)N[C@H](Cc1ccccc1)C(=O)NCCCN1CCOCC1` gave a Ki above 1000 nM. The molecule `CC(C)(Oc1ccc(C(F)(F)F)cc1)C(=O)N[C@@H](Cc1ccccc1)C(=O)NCCCN1CCOCC1` gave an inhibition constant Ki above 1000 nM. `O=C(Nc1ccc(Oc2ccc(C(F)(F)F)cc2)cc1)N[C@@H](Cc1ccccc1)C(=O)NCCCN1CCOCC1` gave an inhibitory constant (Ki) of 250 nM. As for `CC(C)c1cccc(OC(C)(C)C(=O)N[C@@H](Cc2ccccc2)C(=O)NCCCN2CCOCC2)c1`, the figure is above 1000 nM. Turning to `O=C(Nc1cccc(Oc2ccccc2)c1)N[C@@H](Cc1ccccc1)C(=O)NCCCN1CCOCC1`, the affinity corresponds to a Ki of 200 nM. As for `O=C(N[C@H](Cc1ccccc1)C(=O)NCCCN1CCOCC1)C(c1ccccc1)c1ccccc1`, the figure is above 10000 nM. `CC(C)(Oc1ccc(Cl)cc1)C(=O)N[C@@H](Cc1ccccc1)C(=O)NCCCN1CCOCC1` yielded a Ki of 1600 nM.

Turning to `O=C(Nc1ccccc1Oc1ccccc1)N[C@@H](Cc1ccccc1)C(=O)NCCCN1CCOCC1`, the affinity, expressed as Ki, was 5000 nM. As for `CN(C(=O)N[C@@H](Cc1ccccc1)C(=O)NCCCN1CCOCC1)c1cccc(Oc2cccc(F)c2)c1`, the figure is above 1000 nM; as for `COc1ccc(Oc2ccc(NC(=O)N[C@H](Cc3ccccc3)C(=O)NCCCN3CCOCC3)cc2)cc1`, above 1000 nM.

For `CC(C)(Nc1ccccc1)C(=O)N[C@@H](Cc1ccccc1)C(=O)NCCCN1CCOCC1`, the inhibitory constant (Ki) is above 3000 nM. `CN(Cc1ccccc1)C(=O)N[C@H](Cc1ccccc1)C(=O)NCCCN1CCOCC1`: the inhibition constant (Ki) stood at 3000 nM.

`O=C(N[C@H](Cc1ccccc1)C(=O)NCCCN1CCOCC1)c1ccccc1-c1ccccc1` came in with an inhibition constant Ki of 3000 nM. For `CC(C)(Oc1cccc(-c2ccccc2)c1)C(=O)N[C@@H](Cc1ccccc1)C(=O)NCCCN1CCOCC1`, the affinity, expressed as Ki, was 6300 nM.

On to `COc1cc(COc2ccc(NC(=O)N[C@@H](Cc3ccccc3)C(=O)NCCCN3CCOCC3)cc2)cc(OC)c1`, for which the affinity corresponds to a Ki of 200 nM. Consider `CC(C)c1cccc(OC(C)(C)C(=O)N[C@H](Cc2ccccc2)C(=O)NCCCN2CCOCC2)c1`, for which the inhibition constant Ki is above 1000 nM.

`O=C(Nc1ccc(Oc2ccc(C(F)(F)F)cc2)cc1)N[C@H](Cc1ccccc1)C(=O)NCCCN1CCOCC1` registered an inhibition constant (Ki) above 1000 nM. In turn, `Cc1ccc(COc2ccc(NC(=O)N[C@H](Cc3ccccc3)C(=O)NCCCN3CCOCC3)cc2)cc1` came in with a Ki above 1000 nM. As for `O=C(NCCCN1CCOCC1)[C@@H](Cc1ccccc1)NC(=O)N1CCCC(O)(c2ccccc2)C1` (some centres undefined), the Ki is above 10000 nM. As for `O=C(Nc1ccc(Oc2ccc(OC(F)(F)F)cc2)cc1)N[C@H](Cc1ccccc1)C(=O)NCCCN1CCOCC1`, the Ki was above 1000 nM.

With `CC(C)(Oc1cccc(Cl)c1)C(=O)N[C@H](Cc1ccccc1)C(=O)NCCCN1CCOCC1`, affinity was put at a Ki of 310 nM. For `O=C(N[C@@H](Cc1ccccc1)C(=O)NCCCN1CCOCC1)c1ccccc1-c1ccccc1` the value was above 10000 nM; for `CC(C)c1ccc(Oc2ccc(NC(=O)N[C@H](Cc3ccccc3)C(=O)NCCCN3CCOCC3)cc2)cc1`, 200 nM; for `CC(C)(Oc1cccc(Cl)c1)C(=O)N[C@@H](Cc1ccccc1)C(=O)NCCCN1CCOCC1`, above 1000 nM.

`O=C(Nc1ccc(OCc2ccc(C(F)(F)F)cc2)cc1)N[C@@H](Cc1ccccc1)C(=O)NCCCN1CCOCC1` registered a Ki of 790 nM. `CC(C)(Oc1ccccc1-c1ccccc1)C(=O)N[C@@H](Cc1ccccc1)C(=O)NCCCN1CCOCC1` showed an inhibition constant Ki of 3100 nM.

`CC(C)(Nc1ccccc1Oc1ccccc1)C(=O)N[C@H](Cc1ccccc1)C(=O)NCCCN1CCOCC1`: the Ki is above 3000 nM. `CC(C)(Oc1ccc(-c2ccccc2)cc1)C(=O)N[C@H](Cc1ccccc1)C(=O)NCCCN1CCOCC1`: the affinity, expressed as Ki, was 7900 nM. As for `COc1ccc(Oc2ccc(NC(=O)N[C@@H](Cc3ccccc3)C(=O)NCCCN3CCOCC3)cc2)cc1`, the figure is 310 nM. The molecule `CN(C(=O)N[C@H](Cc1ccccc1)C(=O)NCCCN1CCOCC1)c1cccc(Oc2cccc(F)c2)c1` displayed a Ki above 1000 nM. Turning to `CC(C)(Oc1ccc(F)cc1)C(=O)N[C@H](Cc1ccccc1)C(=O)NCCCN1CCOCC1`, the Ki was above 1000 nM.

In the case of `CC(C)c1ccc(Oc2ccc(NC(=O)N[C@@H](Cc3ccccc3)C(=O)NCCCN3CCOCC3)cc2)cc1`, the affinity corresponds to a Ki of 63 nM. Consider `CC(C)(Oc1ccc(F)cc1)C(=O)N[C@@H](Cc1ccccc1)C(=O)NCCCN1CCOCC1`, for which the inhibitory constant (Ki) was above 1000 nM.
